{
  "source": "patent US20230279020A9",
  "about": "“CARM1 INHIBITORS AND USES THEREOF” (Epizyme, Inc., priority 2013, published 2023)",
  "data": [
    {"target": "Human CARM1 (PRMT4) (Homo sapiens (Human), UniProt Q86X55)", "sequence (Q86X55 other isoform, or with tags, fused parts or gaps isoform Q86X55-1)": "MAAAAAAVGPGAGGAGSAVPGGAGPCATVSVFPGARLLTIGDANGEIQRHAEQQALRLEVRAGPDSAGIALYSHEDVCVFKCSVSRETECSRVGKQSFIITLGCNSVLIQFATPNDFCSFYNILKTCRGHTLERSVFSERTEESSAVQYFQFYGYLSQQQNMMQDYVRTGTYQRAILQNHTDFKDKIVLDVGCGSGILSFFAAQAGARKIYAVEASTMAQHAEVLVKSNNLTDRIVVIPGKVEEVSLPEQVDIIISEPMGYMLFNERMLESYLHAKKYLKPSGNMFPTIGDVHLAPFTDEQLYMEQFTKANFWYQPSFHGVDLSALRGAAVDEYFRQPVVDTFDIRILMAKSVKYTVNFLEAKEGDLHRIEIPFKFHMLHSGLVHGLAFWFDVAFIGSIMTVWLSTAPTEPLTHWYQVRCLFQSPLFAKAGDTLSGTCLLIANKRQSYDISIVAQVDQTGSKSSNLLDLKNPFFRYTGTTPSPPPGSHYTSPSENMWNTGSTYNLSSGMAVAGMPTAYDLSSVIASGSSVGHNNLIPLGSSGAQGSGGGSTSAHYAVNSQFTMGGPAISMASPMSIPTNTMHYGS", "experiment": "CARM1 enzyme assay on peptide substrate (3H-SAM Flashplate)", "conditions": "Biochemical potencies, classification codes; read-out: Biochem IC50", "units": {"IC50": "nM"}, "values": [
      {"smiles": "CNC[C@@H](O)COc1cccc(-c2nc(-c3c(C)noc3C)c(C)c(-c3cn(S(C)(=O)=O)c4ncncc34)n2)c1", "note": "[Example 156-1a]", "IC50": "< 100"},
      {"smiles": "CNC[C@@H](O)COc1ccc(Cl)c(-c2nc(-c3c(C)noc3C)c(C)c(N3Cc4cc(Cl)cnc4C3)n2)c1", "note": "[Example 156-3]", "IC50": "< 100"},
      {"smiles": "CNCC(O)COc1cccc(-c2nc(NC(C)C3CCOCC3)c(C)c(-c3c(C)noc3C)n2)c1", "note": "(centres unmarked) [Example 157-1a]", "IC50": "< 100"},
      {"smiles": "CNC[C@@H](O)COc1ccc(Cl)c(-c2nc(-c3c(C)noc3C)c(C)c(N3Cc4cc(F)cnc4C3)n2)c1", "note": "[Example 157-3]", "IC50": "< 100"},
      {"smiles": "CNC[C@@H](O)COc1ccc(Cl)c(-c2nc(-c3c(C)noc3C)c(C)c(N3CCC4(CC3)CN(C3CC3)C4)n2)c1", "note": "[Example 158-3]", "IC50": "< 100"},
      {"smiles": "CNCC(O)COc1cccc(-c2nc(NC3(C)CCOCC3)c(F)c(-c3c(C)noc3C)n2)c1", "note": "(centres unmarked) [Example 159-1a]", "IC50": "< 100"},
      {"smiles": "CNC[C@@H](O)COc1ccc(Cl)c(-c2nc(-c3c(C)noc3C)c(C)c(N3Cc4ccncc4C3)n2)c1", "note": "[Example 159-3]", "IC50": "< 100"},
      {"smiles": "CNCC(O)COc1cccc(-c2nc(C(=O)NC3CCN(C)CC3)cc(-c3c(C)noc3C)n2)c1", "note": "(centres unmarked) [Example 160-1a]", "IC50": "< 100"},
      {"smiles": "CNC[C@@H](O)COc1ccc(Cl)c(-c2nc(NC[C@H]3CCCN3C(=O)OC(C)C)c(C)c(-c3c(C)noc3C)n2)c1", "note": "[Example 160-3]", "IC50": "< 100"},
      {"smiles": "CNCC(O)COc1cccc(-c2nc(-c3c(C)noc3C)c(C)c(N3CCN(C(=O)OCC(F)F)CC3)n2)c1", "note": "(centres unmarked) [Example 161-1a]", "IC50": "< 100"},
      {"smiles": "CCOC(=O)N1CCOC[C@@H]1COc1nc(-c2cc(OC[C@H](O)CNC)ccc2Cl)nc(-c2c(C)noc2C)c1C", "note": "[Example 161-3]", "IC50": "< 100"},
      {"smiles": "CNCC(O)COc1cccc(-c2nc(-c3c(C)noc3C)c(C)c(N3CC[C@H](C(=O)N(C)C)C3)n2)c1", "note": "(some centres unmarked) [Example 162-1a]", "IC50": "< 100"},
      {"smiles": "CNC[C@@H](O)COc1ccc(Cl)c(-c2nc(N[C@@H]3CO[C@@H](C)C3)c(C)c(-c3c(C)noc3C)n2)c1", "note": "[Example 162-3]", "IC50": "< 100"},
      {"smiles": "CNCC(O)COc1cccc(-c2nc(N[C@@H]3CC[C@H](O)C3)c(C)c(-c3c(C)noc3C)n2)c1", "note": "(some centres unmarked) [Example 163-1a]", "IC50": "< 100"},
      {"smiles": "CNC[C@@H](O)COc1ccc(Cl)c(-c2nc(-c3c(C)noc3C)c(C)c(N3CC(CO)(CO)C3)n2)c1", "note": "[Example 163-3]", "IC50": "< 100"},
      {"smiles": "CNCC(O)COc1cccc(-c2nc(-c3c(C)noc3C)c(C)c(N3C[C@@H](C)O[C@@H](C)C3)n2)c1", "note": "(some centres unmarked) [Example 164-1a]", "IC50": "< 100"},
      {"smiles": "CNC[C@@H](O)COc1ccc(F)c(-c2nc(-c3c(C)noc3C)c(C)c(N3Cc4cc(F)cnc4C3)n2)c1", "note": "[Example 164-3]", "IC50": "< 100"},
      {"smiles": "CNCC(O)COc1cccc(-c2nc(-c3c(C)noc3C)cc(N3CCN(n4c(C)nnc4C)CC3)n2)c1", "note": "(centres unmarked) [Example 165-1a]", "IC50": "< 100"},
      {"smiles": "CNCC(O)COc1cccc(-c2nc(-c3c(C)noc3C)cc(N3CCN(C4CCOCC4)CC3)n2)c1", "note": "(centres unmarked) [Example 166-1a]", "IC50": "< 100"},
      {"smiles": "CCS(=O)(=O)N1CCCC(CNc2nc(-c3cccc(OCC(O)CNC)c3)nc(-c3c(C)noc3C)c2C)C1", "note": "(centres unmarked) [Example 167-1a]", "IC50": "< 100"},
      {"smiles": "CNC[C@@H](O)COc1ccc(Cl)c(-c2nc(N[C@@H]3CCN(C4CC4)C[C@@H]3F)c(C)c(-c3c(C)noc3C)n2)c1", "note": "[Example 167-3]", "IC50": "< 100"},
      {"smiles": "CCS(=O)(=O)N1CCC(Nc2nc(-c3cccc(OCC(O)CNC)c3)nc(-c3c(C)noc3C)c2C)CC1", "note": "(centres unmarked) [Example 168-1a]", "IC50": "< 100"},
      {"smiles": "CNC[C@@H](O)COc1ccc(Cl)c(-c2nc(-c3c(C)noc3C)c(Cl)c(N3Cc4cccnc4C3)n2)c1", "note": "[Example 168-3]", "IC50": "< 100"},
      {"smiles": "CNC[C@H](O)COc1cccc(-c2nc(NC3CCN(C(=O)OC)CC3)c(C)c(-c3c(C)noc3C)n2)c1", "note": "[Example 169-1a]", "IC50": "< 100"},
      {"smiles": "CNC[C@@H](O)COc1ccc(Cl)c(-c2nc(N[C@H]3CCN(C(=O)OC)[C@@H](C)C3)c(C)c(-c3c(C)noc3C)n2)c1", "note": "[Example 169-3]", "IC50": "< 100"},
      {"smiles": "CNC[C@@H](O)COc1cccc(-c2nc(NC3CCN(C(=O)OC)CC3)c(C)c(-c3c(C)noc3C)n2)c1", "note": "[Example 170-1a]", "IC50": "< 100"}
    ]}
  ]
}
